Results as given in US20110172297A1, “Oxopiperdinyl And Pyranyl Sulfonamides and Pharmaceutical Compositions Thereof” (Pfizer Inc, priority 2008, published 2011).

Test system: AMPA receptors
Experiment: AMPA ES cell FLIPR screen (AMPA Potentiator Assay)
Assay type: cell-based
Conditions: murine ES cell-derived neurons, FLIPR Fluo-4 calcium signal, 32 uM AMPA challenge; values marked * are the geometric mean of 2-9 EC50 determinations
Description: The murine ES cell line used was E14-Sx1-16C, which has a targeted mutation in the Sox1 gene, a neuroectodermal marker, that offers G418 resistance when the Sox1 gene is expressed (Stem Cell Sciences). ES cells were maintained undifferentiated as previously described (Roach). […] ES cells were plated on gelatin-coated dishes (BD Biosciences), the media was changed daily and the cells were dissociated with 0.05% Trypsin EDTA (Invitrogen) every other day.
Embryoid Body Formation: Prior to embryoid body (EB) formation the ES cells were weaned from FBS onto Knockout Serum Replacement (KSR) (Invitrogen). To form EBs, ES cells were dissociated into a single cell suspension, then 3×10^6 cells were plated in bacteriology dishes (Nunc 4014) and grown as a suspension culture in NeuroEB-I medium that consisted of Knockout™ D-MEM (Invitrogen), supplemented with 10% KSR (Invitrogen), 0.2 mM L-Glutamine (Invitrogen), 0.1 mM MEM non-essential amino acids (Invitrogen), 30 μg/ml Gentamicin (Invitrogen), 1000 u/ml ESGRO (Chemicon), 0.1 mM 2-Mercaptoethanl (Sigma) and 150 ng/ml Transferrin (Invitrogen). The plates were put on a Stovall Belly Button shaker in an atmospheric oxygen incubator. The media was changed on day 2 of EB formation with NeuroEB-I and on day 4 with NeuroEB-II (NeuroEB-I plus 1 μg/ml mNoggin [R&D Systems]).
Neuronal Precursor Selection and Expansion: On day 5 of EB formation, EBs were dissociated with 0.05% Trypsin EDTA, and 4×10^6cells/100 mm dish were plated on Laminin coated tissue culture dishes in Neuroll-G418 medium that consisted of a base medium of a 1:1 mixture of D-MEM/F12 supplemented with N2 supplements and NeuroBasal Medium supplemented with B27 supplement and 0.1 mM L-Glutamine (all from Invitrogen). The base medium was then supplemented with 10 ng/ml bFGF (Invitrogen), 1 μg/ml mNoggin, 500 ng/ml SHH—N, 100 ng/ml FGF-8b (R&D Systems), 1 μg/ml Laminin and 200 μg/ml G418 (Invitrogen) for selection of neuronal precursors expressing Sox-1. The plates were put in an incubator that contained 2% Oxygen and were maintained in these conditions. During the 6-day selection period, the Neuroll media was changed daily. On day 6, the surviving neuronal precursor foci were dissociated with 0.05% Trypsin EDTA and the cells were plated at a density of 1.5×10^6 cells/100 mm Laminin coated dish in Neuroll-G418 medium. The cells were dissociated every other day for expansion, and prepared for Cryopreservation at passage 3 or 4. The crypreservation medium contained 50% KSR, 10% Dimethyl Sulfoxide (DMSO) (Sigma) and 40% Neurol-G418I medium. Neuronal precursors were crypreserved at a concentration of 4×10^6 cells/ml and 1 ml/cryovial in a controlled rate freezer overnight then transferred to an ultra-low freezer or liquid nitrogen for long-term storage.
Neuronal Differentiation: Cryopreserved ES cell-derived neuronal precursors were thawed by the rapid thaw method in a 37-degree water-bath. The cells were transferred from the cryovial to a 100 mm Laminin coated tissue culture dish that already contained Neuroll-G418 that had been equilibrated in a 2% Oxygen incubator. The media was changed with fresh Neuroll-G418 the next day. The cells were dissociated every other day as described above for expansion to generate enough cells to plate for the screen. For the screen, the cells were plated into 384-well poly-d-lysine coated tissue culture dishes (BD Biosciences) by the automated SelecT at a cell density of 6K cells/well in differentiation medium Neurolll that contained a 4:1 ratio of the NeuroBasalMedium/B27:D-MEM/F12/N2 supplemented with 1 μM cAMP (Sigma), 200 μM Ascorbic Acid (Sigma), 1 μg/ml Laminin (Invitrogen) and 10 ng/ml BDNF (R&D Systems). The plates were put in an incubator with 2% Oxygen and allowed to complete the differentiation process for 7 days. The cells could then be used over a 5-day period for the high throughput screen.
On the day of the assay, the FLIPR assay may be performed using the following methods: […]

CC(C)S(=O)(=O)N[C@@H]1COCC[C@@H]1c1ccc(-c2ccccc2C#N)cc1 [Example 56, N-[(3S,4R)-4-(2′-cyanobiphenyl-4-yl)tetrahydro-2H-pyran-3-yl]propane-2-sulfonamide]
EC50: > 31600 nM

CC(C)S(=O)(=O)N[C@H]1CCOC[C@H]1c1ccc(-c2ccc(C#N)s2)cc1 [Example 1, N-{(3S,4S)-3-[4-(5-cyano-2-thienyl)phenyl]tetrahydro-2H-pyran-4-yl}propane-2-sulfonamide]
EC50: 11000 nM

CC(C)S(=O)(=O)N[C@@H]1CCOC[C@H]1c1ccc(-c2ccc(C#N)cc2)cc1 [Example 39, N-[(3S,4R)-3-(4′-cyanobiphenyl-4-yl)tetrahydro-2H-pyran-4-yl]propane-2-sulfonamide]
EC50: > 31600 nM

CC(C)S(=O)(=O)N[C@H]1COCC[C@H]1c1ccc(-c2ccc(C#N)cc2)cc1 [Example 61, N-[(3R,4S)-4-(4′-cyanobiphenyl-4-yl)tetrahydro-2H-pyran-3-yl]propane-2-sulfonamide]
EC50: > 31600 nM

CC(C)S(=O)(=O)N[C@@H]1COCC[C@@H]1c1ccc(-c2ccccc2)cc1 [Example 13, N-[(3S,4R)-4-biphenyl-4-yltetrahydro-2H-pyran-3-yl]propane-2-sulfonamide]
EC50: > 31600 nM

CC(C)S(=O)(=O)N[C@@H]1COCC[C@H]1c1ccc(-c2ccccc2C#N)cc1 [Example 17, N-[(3S,4S)-4-(2′-cyanobiphenyl-4-yl)tetrahydro-2H-pyran-3-yl]propane-2-sulfonamide]
EC50: > 31600 nM

CC(C)S(=O)(=O)N[C@H]1COCC[C@@H]1c1ccc(-c2ccccc2C#N)cc1 [Example 18, N-[(3R,4R)-4-(2′-cyanobiphenyl-4-yl)tetrahydro-2H-pyran-3-yl]propane-2-sulfonamide]
EC50: 415 nM

CCOc1ccccc1-c1ccc([C@H]2COCC[C@@H]2NS(=O)(=O)C(C)C)cc1 [Example 34, N-[(3R,4S)-3-(2′-ethoxybiphenyl-4-yl)tetrahydro-2H-pyran-4-yl]propane-2-sulfonamide]
EC50: 220 nM

CC(C)S(=O)(=O)N[C@@H]1CCOC[C@H]1c1ccc(-c2cccnc2)cc1 [Example 37, N-[(3S,4R)-3-(4-pyridin-3-ylphenyl)tetrahydro-2H-pyran-4-yl]propane-2-sulfonamide]
EC50: > 4670 nM

CCOc1ccccc1-c1ccc([C@@H]2CCOC[C@H]2NS(=O)(=O)C(C)C)cc1 [Example 7, N-[(3S,4S)-4-(2′-ethoxybiphenyl-4-yl)tetrahydro-2H-pyran-3-yl]propane-2-sulfonamide]
EC50: > 31600 nM

CC(C)S(=O)(=O)N[C@H]1COCC[C@H]1c1ccc(-c2ccccc2C#N)cc1 [Example 57, N-[(3R,4S)-4-(2′-cyanobiphenyl-4-yl)tetrahydro-2H-pyran-3-yl]propane-2-sulfonamide]
EC50: 748 nM

CC(C)S(=O)(=O)N[C@@H]1CCC(=O)N[C@H]1c1ccc(-c2ccccc2)cc1 [Example 12, N-[(2S,3R)-2-biphenyl-4-yl-6-oxopiperidin-3-yl]propane-2-sulfonamide]
EC50: 12200 nM

CC(C)S(=O)(=O)N[C@H]1CCCO[C@@H]1c1ccc(-c2ccc(C#N)s2)cc1 [Example 48, N-{(2R,3S)-2-[4-(5-cyano-2-thienyl)phenyl]tetrahydro-2H-pyran-3-yl}propane-2-sulfonamide]
EC50: 5640 nM

CC(C)S(=O)(=O)N[C@H]1CCOC[C@H]1c1ccc(-c2ccccc2)cc1 [Example 25, N-[(3S,4S)-3-biphenyl-4-yltetrahydro-2H-pyran-4-yl]propane-2-sulfonamide]
EC50: 684 nM

CC(C)S(=O)(=O)N[C@H]1CCOC[C@@H]1c1ccc(-c2ccccc2C#N)cc1 [Example 31, N-[(3R,4S)-3-(2′-cyanobiphenyl-4-yl)tetrahydro-2H-pyran-4-yl]propane-2-sulfonamide]
EC50: 318 nM

CC(C)S(=O)(=O)N[C@@H]1CCC(=O)N[C@H]1c1ccc(-c2ccc(C#N)s2)cc1 [Example 51, N-{(2S,3R)-2-[4-(5-cyano-2-thienyl)phenyl]-6-oxopiperidin-3-yl}propane-2-sulfonamide]
EC50: 1710 nM

CC(C)S(=O)(=O)N[C@H]1CCC(=O)N[C@@H]1c1ccc(-c2ccccc2)cc1 [Example 11, N-[(2R,3S)-2-biphenyl-4-yl-6-oxopiperidin-3-yl]propane-2-sulfonamide]
EC50: > 31600 nM

CC(C)S(=O)(=O)N[C@H]1COCC[C@H]1c1ccc(-c2ccc(C#N)s2)cc1 [Example 59, N-{(3R,4S)-4-[4-(5-cyano-2-thienyl)phenyl]tetrahydro-2H-pyran-3-yl}propane-2-sulfonamide]
EC50: 2100 nM

CCOc1ccccc1-c1ccc([C@H]2CCOC[C@H]2NS(=O)(=O)C(C)C)cc1 [Example 62, N-[(3S,4R)-4-(2′-ethoxybiphenyl-4-yl)tetrahydro-2H-pyran-3-yl]propane-2-sulfonamide]
EC50: > 31600 nM

CC(C)S(=O)(=O)N[C@H]1CCOC[C@H]1c1ccc(-c2ccc(F)cc2C#N)cc1 [Example 24, N-[(3S,4S)-3-(2′-cyano-4′-fluorobiphenyl-4-yl)tetrahydro-2H-pyran-4-yl]propane-2-sulfonamide]
EC50: 378 nM

CC(C)S(=O)(=O)N[C@H]1CCOC[C@@H]1c1ccc(-c2ccc(F)cc2C#N)cc1 [Example 40, N-[(3R,4S)-3-(2′-cyano-4′-fluorobiphenyl-4-yl)tetrahydro-2H-pyran-4-yl]propane-2-sulfonamide]
EC50: 255 nM

CC(C)S(=O)(=O)N[C@H]1CCOC[C@@H]1c1ccc(-c2ccc(C#N)cc2)cc1 [Example 38, N-[(3R,4S)-3-(4′-cyanobiphenyl-4-yl)tetrahydro-2H-pyran-4-yl]propane-2-sulfonamide]
EC50: 1040 nM

CCOc1ccccc1-c1ccc([C@H]2OCCC[C@@H]2NS(=O)(=O)C(C)C)cc1 [Example 44, N-[(2R,3S)-2-(2′-ethoxybiphenyl-4-yl)tetrahydro-2H-pyran-3-yl]propane-2-sulfonamide]
EC50: 493 nM

CC(C)S(=O)(=O)N[C@@H]1CCOC[C@H]1c1ccc(-c2ccc(C#N)s2)cc1 [Example 42, N-{(3S,4R)-3-[4-(5-cyano-2-thienyl)phenyl]tetrahydro-2H-pyran-4-yl}propane-2-sulfonamide]
EC50: > 31600 nM

CC(C)S(=O)(=O)N[C@@H]1CCCO[C@H]1c1ccc(-c2ccccc2)cc1 [Example 43, N-[(2S,3R)-2-biphenyl-4-yltetrahydro-2H-pyran-3-yl]propane-2-sulfonamide]
EC50: > 31600 nM

CC(C)S(=O)(=O)N[C@H]1CCOC[C@H]1c1ccc(-c2ccc(C#N)cc2)cc1 [Example 29, N-[(3S,4S)-3-(4′-cyanobiphenyl-4-yl)tetrahydro-2H-pyran-4-yl]propane-2-sulfonamide]
EC50: 4040 nM

CC(C)S(=O)(=O)N[C@@H]1CCOC[C@@H]1c1ccc(-c2ccc(C#N)cc2)cc1 [Example 30, N-[(3R,4R)-3-(4′-cyanobiphenyl-4-yl)tetrahydro-2H-pyran-4-yl]propane-2-sulfonamide]
EC50: > 31600 nM

CC(C)S(=O)(=O)N[C@@H]1COCC[C@@H]1c1ccc(-c2ccc(C#N)s2)cc1 [Example 58, N-{(3S,4R)-4-[4-(5-cyano-2-thienyl)phenyl]tetrahydro-2H-pyran-3-yl}propane-2-sulfonamide]
EC50: > 31600 nM

CCOc1ccccc1-c1ccc([C@@H]2COCC[C@@H]2NS(=O)(=O)C(C)C)cc1 [Example 27, N-[(3S,4S)-3-(2′-ethoxybiphenyl-4-yl)tetrahydro-2H-pyran-4-yl]propane-2-sulfonamide]
EC50: 320 nM

CC(C)S(=O)(=O)N[C@@H]1COCC[C@@]1(O)c1ccc(-c2ccccc2)cc1 [Example 6, N-[(3R,4R)-4-biphenyl-4-yl-4-hydroxytetrahydro-2H-pyran-3-yl]propane-2-sulfonamide]
EC50: > 31600 nM
